These results are taken from patent publication US5374641A, “N-(3-pyridylalkyl)sulfonamide compounds which have useful pharmaceutical activity” (Terumo Kabushiki Kaisha, priority 1991, dated 1994).

Assay [1] has as its system platelet aggregation caused by U-46619. The assay is described as follows: Test Example 1: Platelet aggregation inhibiting activity (human PRP, U-46619). The assay is classed as cell-based. The settings on record: for IC50: Platelet, 320 nM U-46619, 37° C., read-out: Inhibitory effect against platelet aggregation caused by U-46619 (IC50); for platelet aggregation inhibiting activity (in words): U-46619. How it is done: (§1) A blood sample was collected from human fore arm using a syringe containing 3.8% sodium citrate solution (1/10 volume of the blood to be collected) and centrifuged to obtain platelet rich plasma (PRP; 3 ×10^5 platelets/μ1).
(§2) Platelet aggregation was measured using an aggregometer (Hematracer VI, Niko Bioscience Co., Ltd.) by putting 200 µl of the thus prepared PRP and 23.75 µl of physiological saline in a cuvette, setting the cuvette into the aggregometer and incubating the contents at 37° C. for 2 minutes, adding 1.25 μ1 dimethyl sulfoxide (DMSO) solution of each of the N-(3-pyridylalkyl)sulfonamide derivatives obtained in Examples 1, 3, 4, 6 and 8 and incubating for 3 minutes, and then adding U-46619 (Cayman Chemical Co., Inc.) which is a stable PGG2/ H2 derivative having a strong platelet aggregation causing activity.
In this instance, the term "IC50 "as used herein means concentration of the N-(3-pyridylalkyl)sulfonamide derivative of the present invention required to inhibit 50% of the platelet agglutination when platelet aggregation without introducing the inventive derivative was defined as 100%.

Assay [2] addresses T1, thromboxane synthetase (Homo sapiens, UniProt P24557).
T1 sequence (P24557 1-533): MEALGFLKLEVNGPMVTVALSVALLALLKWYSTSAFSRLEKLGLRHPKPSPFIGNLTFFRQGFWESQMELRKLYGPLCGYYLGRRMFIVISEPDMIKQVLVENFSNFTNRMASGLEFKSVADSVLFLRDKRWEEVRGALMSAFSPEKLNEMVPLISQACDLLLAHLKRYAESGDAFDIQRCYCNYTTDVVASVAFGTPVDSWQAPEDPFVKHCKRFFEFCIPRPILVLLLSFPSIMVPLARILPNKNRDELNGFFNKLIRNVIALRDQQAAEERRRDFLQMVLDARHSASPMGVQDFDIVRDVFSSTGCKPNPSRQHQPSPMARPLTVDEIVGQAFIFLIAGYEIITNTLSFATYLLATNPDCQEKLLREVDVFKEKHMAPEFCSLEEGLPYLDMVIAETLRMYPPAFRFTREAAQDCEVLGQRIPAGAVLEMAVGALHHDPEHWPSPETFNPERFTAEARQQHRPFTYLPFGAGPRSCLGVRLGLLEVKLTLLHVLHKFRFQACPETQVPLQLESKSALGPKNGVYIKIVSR
The assay is described as follows: Test Example 2: Thromboxane synthetase inhibiting activity (human PRP, thrombin, RIA). The format is cell-based. As for the experimental part:
as §1
(§3) A 200 μ1 portion of the thus prepared PRP and 23.75 µl of physiological saline were put in a cuvette, the cuvette was set into the aforementioned aggregometer and the contents in the cuvette were incubated at 37° C. for 2 minutes. Thereafter, 1.25 μ1 dimethyl sulfoxide (DMSO) solution of each of the N-(3-pyridylalkyl)sulfonamide derivatives obtained in Examples 1, 3 and 7 was put in the cuvette and incubated for 3 minutes, followed by the addition of 20 U/ml solution of thrombin to cause platelet aggregation. A portion of the supernatant after aggregation reaction was mixed with diethyl ether/methanol/0.2M citric acid (30:4:1 ), and the thus formed thromboxane A2 was extracted and its quantity was analyzed by RIA using a kit of Amersham.

Assay [3] has as its system tracheal smooth muscle contraction caused by the U-46619. The assay is described as follows: Test Example 3: Competitive activity against TXA2.PGH2 (tracheal smooth muscle contraction caused by U-46619). The assay is classed as cell-based, Hartley guinea pig. The settings on record: guinea pig trachea. As for the experimental part:
In vitro competitive activity (IC50) of the derivative of the present invention against TXA2· PGH2 was measured as follows.
(§4) Sections of tracheae excised from Hartley guinea pig males of 300 to 500 g in weight were suspended with a load of 0.3 g in Tyrode solution (30° C.) contained in a Magnus vessel which was aerated with a mixed gas system of 95% oxygen and 5% carbon dioxide. After about 1 hour of stabilization, U-46619 (a TXA2· PGH2 analog, manufactured by Cayman Chemical Co., Inc.) was added to the solution in a concentration of 10^-7 M. Thereafter, effect of the addition of the inventive N-(3-pyridylalkyl)sulfonamide derivative obtained in Example 4 on the tracheal smooth muscle contraction caused by the U-46619 was measured and the IC50 value was calculated.

For assay [4], the system named is platelet aggregation caused by U-46619. The assay is described as follows: Test Examples 6: Platelet aggregation inhibiting activity (human PRP, U-46619). The assay is classed as cell-based. As for the experimental part:
A blood sample was collected from human fore arm using a syringe containing 3.8% sodium citrate solution (1/10 volume of the blood to be collected) and centrifuged to obtain platelet rich plasma (PRP; 3×10^5 platelets/μl).
as §2, with “200 μof” for “200 µl of”, “23.75 μl” for “23.75 µl”, “1.25 μl” for “1.25 μ1”, “Examples 35, 36, 37” for “Examples 1, 3, 4, 6”, “and 42” for “and 8”, “stable PGG2 /H2” for “stable PGG2/ H2”
In this instance, the term "IC50 " as used herein means concentration of the N-(3-pyridylalkyl)sulfonamide derivative of the present invention required to inhibit 50% of the platelet aggregation when platelet aggregation without introducing the inventive derivative was defined as 100%.

Assay [5] addresses T1, thromboxane synthetase. The assay is described as follows: Test Example 7: Thromboxane synthetase inhibiting activity (human PRP, thrombin, RIA). The assay is classed as cell-based. As for the experimental part:
A blood sample was collected from human fore arm using a syringe containing 3.8% sodium citrate solution (1/10 volume of the blood to be collected) and centrifuged to obtain platelet rich plasma (PRP; 3×10^5 platelets/μl ).
as §3, with “200 μl” for “200 μ1”, “23.75 μl” for “23.75 µl”, “Examples 36, 37, 38” for “Examples 1, 3”, “and 40” for “and 7”, “acid (30:4:1),” for “acid (30:4:1 ),”

Assay [6] deals with tracheal smooth muscle contraction caused by the U-46619. The assay can be described thus: Test Examples 8: Competitive activity against TXA2.PGH2 (tracheal smooth muscle contraction caused by U-46619). The format is cell-based, Hartley guinea pig. The following applies: guinea pig trachea. How it is done: In vitro competitive activity (IC50) of the derivative of the present invention against TXA2 ·PGH2 was measured as follows.
as §4, with “TXA2 ·PGH2” for “TXA2· PGH2”, “Inc. )” for “Inc.)”

[7] abbreviates: 20 U/ml thrombin, RIA, read-out: Inhibition of thromboxane A2 synthesis (IC50).
Setting [8] is: Cavia porcellus, U-46619 10^-7 M, in vitro.

With `CCOC(=O)COc1ccc(C(CNS(=O)(=O)c2ccc(Cl)cc2)c2cccnc2)cc1` (stereo not shown) [Example 4, ethyl 4-[2-(4-chlorobenzenesulfonamido)-1-(3-pyridyl)ethyl]phenyloxyacetate], in assay [1], the IC50 is 51 µM and the “platelet aggregation inhibiting activity (in words)” value is listed as “markedly high platelet aggregation inhibiting activity”. Besides, on thromboxane synthetase [2] (setting [7]), the IC50 worked out at 0.033 µM. In assay [3] (U-46619), the “in vitro competitive activity against TXA2.PGH2 (in words)” value is “excellent in vitro competitive activity”.
Take `O=C(O)COc1ccc(C(CNS(=O)(=O)c2ccc(Cl)cc2)c2cccnc2)cc1` (stereo not shown) [Example 5, 4-[2-(4-chlorobenzenesulfonamido)-1-(3-pyridyl)ethyl]phenyloxyacetic acid]: the IC50 in assay [1] worked out at 16 µM; in assay [3] (setting [8]) it was 6.7 µM. For the same compound, in assay [1], the “platelet aggregation inhibiting activity (in words)” value was “markedly high platelet aggregation inhibiting activity”.
For the compound `O=C(O)COc1ccc(C(CCNS(=O)(=O)c2ccc(Cl)cc2)c2cccnc2)cc1` (stereo not shown) [Example 7, 4-[3-(4-chlorobenzenesulfonamido)-1-(3-pyridyl)propyl]phenyloxyacetic acid], in assay [1], the IC50 worked out at 30 µM and the “platelet aggregation inhibiting activity (in words)” value is given as “markedly high platelet aggregation inhibiting activity”. Further, the “thromboxane synthetase inhibiting activity (in words)” value at thromboxane synthetase [2] (thrombin) is “excellent thromboxane synthetase inhibiting activity”.
For `CCOC(=O)/C(C)=C/c1ccc(C(CNS(=O)(=O)c2ccc(Cl)cc2)Cc2cccnc2)cc1` (stereo not drawn) [Example 37, ethyl 4-[1-(4-chlorobenzenesulfonamido)-3-(3-pyridyl)-2-propyl]-α-methylcinnamate], the IC50 in assay [4] (Platelet, 320 nM U-46619, 37° C., read-out: Inhibitory effect against platelet aggregation caused by U-46619 (IC50)) was 66 µM; at thromboxane synthetase [5] (setting [7]) it was 8.9 µM; in assay [6] (setting [8]) it was 0.088 µM. Besides, the “platelet aggregation inhibiting activity (in words)” value in assay [4] (U-46619) is “markedly high platelet aggregation inhibiting activity”. In addition, at thromboxane synthetase [5] (thrombin), the “thromboxane synthetase inhibiting activity (in words)” value is “excellent thromboxane synthetase inhibiting activity”. In addition, the “in vitro competitive activity against TXA2.PGH2 (in words)” value in assay [6] (U-46619) is “excellent in vitro competitive”.
